From patent US6750213B2, “Estrogen receptor modulators” (Merck & Co., Inc., priority 2000, dated 2004)

Test system: MCF-7 cells
Assay: MCF-7 Estrogen Dependent Proliferation Assay
Format: cell-based
Details: Homo sapiens, MCF7, addition to Estrogen Depleted Media (EDM), read-out: EC50 of stimulation of growth of MCF-7 cells
Excerpt: MCF-7 cells (ATCC #HTB-22) are human mammary gland adenocarcinoma cells that require estrogen for growth. The growth media (GM) for the MCF-7 cells is Minimum Essential Media (without phenol red) supplemented with fetal bovine serum(FBS) to 10%. The FBS serves as the sole source of estrogen and this GM supports the full growth of the cells and is used for the routine growth of the cell cultures. When MCF-7 cells are placed in a media in which 10% Charcoal-Dextran treated fetal bovine serum (CD-FBS) is substituted for FBS, the cells will cease to divide but will remain viable. […] The addition of estradiol to EDM stimulates the growth of the MCF-7 cells in a dose dependent manner with an EC50 of 2 pM. Growing MCF-7 cells are washed several times with EDM and the cultures then maintained in EDM for a minimum of 6 days in order to deplete the cells of endogenous estrogen. […] At this point, the culture supernatants are aspirated, the cells washed 2×with PBS, the wash solution aspirated and the protein content of each well determined. Each drug dilution is evaluated on a minimum of 5 wells and the range of dilution of the test compounds in the assay is […] to 1000 nM. […] The assay is terminated at day 8-10 when the appropriate controls reach 80-90% confluency and the protein content of each well is determined as above.

EC50: 2 pM
Structure (SMILES): C[C@]12CC[C@@H]3c4ccc(O)cc4CC[C@H]3[C@@H]1CC[C@@H]2O [estradiol]
